According to patent publication US8765735B2, “Isoxazolines as inhibitors of fatty acid amide hydrolase” (Infinity Pharmaceuticals, Inc., priority 2009, dated 2014):

Target: T1, human FAAH (Homo sapiens, UniProt O00519)
T1 construct: host or cells: COS-7 cells, transient transfection; 13,000 g membrane fraction solubilised in 1% Triton X-100
T1 sequence (O00519 1-579): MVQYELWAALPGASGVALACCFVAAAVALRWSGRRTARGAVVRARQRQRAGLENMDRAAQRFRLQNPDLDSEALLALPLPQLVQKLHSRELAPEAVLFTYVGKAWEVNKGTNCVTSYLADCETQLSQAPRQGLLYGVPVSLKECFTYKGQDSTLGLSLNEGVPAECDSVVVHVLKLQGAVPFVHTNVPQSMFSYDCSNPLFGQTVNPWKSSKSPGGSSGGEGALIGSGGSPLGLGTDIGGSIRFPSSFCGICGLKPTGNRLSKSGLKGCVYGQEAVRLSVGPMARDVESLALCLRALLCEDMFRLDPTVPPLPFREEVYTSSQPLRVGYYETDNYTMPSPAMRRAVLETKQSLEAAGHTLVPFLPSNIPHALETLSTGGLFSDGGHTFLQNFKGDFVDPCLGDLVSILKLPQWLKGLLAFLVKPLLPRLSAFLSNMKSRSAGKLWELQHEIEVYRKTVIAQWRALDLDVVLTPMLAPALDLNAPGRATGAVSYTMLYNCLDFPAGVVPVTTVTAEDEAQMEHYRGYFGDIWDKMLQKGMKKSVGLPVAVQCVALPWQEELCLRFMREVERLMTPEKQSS
Test: Inhibition of human FAAH (fluorescence assay, AMC arachidonoyl amide substrate)
Assay type: biochemical
Conditions: solubilized human FAAH from transfected COS-7 cells; 30 min preincubation; 20 μM AMC-arachidonoyl amide; 4 h at room temperature
Protocol: Human FAAH Preparation: COS-7 cells were split the day before, 1:5 into 150 mm×25 mm cell culture dishes (Corning Inc., Cat. No. 430599). Transient transfection took place at 30-40% confluency according to FuGENE 6 Transfection Reagent (Roche, Cat. No. 11814 443 001).
Transfection Procedure: The FuGENE transfection 6 reagent (45 uL) was added to 1410 μL of media (DMEM, serum free without pen/strep) in a 15 mL conical tube and incubated at room temp for 5 minutes, followed by the addition of FAAH plasmid DNA (15 μg) (OriGene Cat. No. TC119221, Genbank Accession No. NM_001441.1, 0.67 ug/uL) and a further incubation of 15 minutes at room temperature. The resulting solution was added into one dish of 30-40% confluent COS-7 cells in a drop-wise manner. The COS-7 cell dish was subsequently incubated for 48 hours. The cells are then harvested.
Harvest procedure: Media was aspirated from the dishes and the cells rinsed with 10 mL PBS. The PBS was removed and 3 mL of PBS added to the dish. The dish was scraped to resuspend the cells, and the subsequent cell suspension collected into a 15 mL conical tube. The cells were pelleted by centrifugation at 1200 rpm for 5 minutes in a bench top centrifuge. PBS was removed and the cell pellet snap frozen in liquid nitrogen and stored at −80° C.
COS-7 cells—FAAH purification: • (1) Fractionation: Frozen cell pellets from transient transfections were thawed on ice and resuspended in 12.5 mM Hepes pH 8.0, 100 mM NaCl, 1 mM EDTA (10 mL/0.2 g cell pellet). The pellets were dounce homogenized and then sonicated to produce cell extract. The cell extract was subsequently centrifuged at 1000 g to remove cellular debris. The pellet was discarded and the supernatant centrifuged at 13,000 g for 20 minutes. The pellet contained membrane bound FAAH. The supernatant was discarded and the pellet resolubilized. • (2) Re-solubilization: The fraction of interest, (13,000 g, membrane fraction) was re-suspended in 2.3 mL re-suspension buffer (20 mM Hepes pH 7.8, 10% v/v Glycerol, 1 mM EDTA, 1% Triton X-100) and the sample incubated on ice for 1 hour and then centrifuged to remove any particulate matter. The supernatant containing solubilized human FAAH was aliquoted and snap frozen in liquid nitrogen and stored at 80° C. until use. • (3) Characterization: Protein Concentration determined by Bradford assay. • SDS gel and Western blot to confirm presence of FAAH • FAAH activity assay • Km determination—96-well assay • Linear dependence—96-well assay • Standard compound Ki determination—384-well assay
Human FAAH assay; Experimental Protocol: A 0.1 mg/mL Human FAAH solution was made up in FAAH reaction buffer, and 24 ul pipeted into a 384 well plate. To this was added 1 μL of a 3 fold serially diluted inhibitor from a DMSO stock solution. The FAAH solution and inhibitor were incubated for 30 minutes at room temperature. The FAAH reaction was initiated by the addition of 25 μL of 40 μM AMC Arachidonoyl Amide in FAAH reaction buffer, yielding a final reaction human FAAH preparation concentration of 0.05 mg/ml and AMC-Arachidonoyl substrate concentration of 20 μM, reaction volume 50 μL. The reaction was allowed to proceed for 4 hours at room temperature. The reaction was stopped by the addition of 25 μL 12 μM a-ketoheterocycle (Cayman Chemicals, catalogue #10435). The microtiter plate was read in the envision plate reader.
The raw fluorescence was plotted on the y axis and the inhibitor concentration on the x axis to give a dose response inhibition curve. The data was fitted to a single site competitive inhibition equation, fixing the Km for the human enzyme to 12 μM and 9 μM respectively.

| SMILES | Ki [nM] |
| --- | --- |
| CC(C)(C)OC(=O)N1CCC[C@@]2(CC(Br)=NO2)C1 [III-10a] | ≥ 1000 |
| COC(=O)N1CCC2(CC1)CC(Br)=NO2 [III-35] | 100 to 1000 |
| BrC1=NO[C@@]2(CCc3cc(Oc4ccccc4)ccc32)C1 [III-63b] | ≤ 100 |
| O=C(OCc1ccc(Cl)cc1)N1CCC2(CC1)CC(Br)=NO2 [III-40] | ≤ 100 |
| COc1ccc(COC(=O)N2CCC3(CC2)CC(Br)=NO3)cc1 [III-39] | ≤ 100 |
| BrC1=NOC2(CCN(Cc3cccnc3)CC2)C1 [III-23] | 100 to 1000 |
| Clc1cccc(CN2CCC3(CC2)CC(Br)=NO3)c1 [III-27] | ≤ 100 |
| CC(C)(C)OC(=O)N1CC[C@@]2(CC(Br)=NO2)C1 [III-11a] | 100 to 1000 |
